Measurements from publication PMC11256303 (ACS Omega, 2024).

molecular target: α-amylase; experiment: in vitro α-amylase inhibition; format: biochemical; settings: read-out: alpha-amylase IC50 ± SEM, standard acarbose

IC50 [µM] | SMILES
15.3 ± 0.3 | Cc1ccc(/C=N\c2nsc(Nc3ccc(Cl)c(Cl)c3)n2)cc1 [Compound 4]
17.7 ± 0.3 | COc1cccc(/C=N\c2nsc(Nc3ccc(Cl)c(Cl)c3)n2)c1 [Compound 5]
1.9 ± 0.1 | Clc1ccc(/C=N\c2nsc(Nc3ccc(Cl)c(Cl)c3)n2)cc1Cl [Compound 6]
20.1 ± 0.4 | Clc1ccc(Nc2nc(/N=C\c3ccc(Br)cc3)ns2)cc1Cl [Compound 7]
16.2 ± 0.3 | COc1ccccc1/C=N\c1nsc(Nc2ccc(Cl)c(Cl)c2)n1 [Compound 8]
1.5 ± 0.1 | FC(F)(F)c1cccc(Nc2nc(/N=C\c3ccc(Cl)cc3)ns2)c1 [Compound 13]
0.8 ± 0.05 | FC(F)(F)c1cccc(Nc2nc(/N=C/c3ccc(Cl)cc3Cl)ns2)c1 [Compound 15, (E)-3-((2,4-dichlorobenzylidene)amino)-N-(3-(trifluoromethyl)phenyl)-1,2,4-thiadiazol-5-amine]
